One assay has as its target T1, α2β3γ2 (δ74–79) (Mus musculus; Homo sapiens, UniProt P22723+P26048+P28472, P22723:A117H/P22723:D113T/P22723:F116L/P22723:I112M/P22723:I114V/P22723:T119S/P22723:Y121R).
T1 construct: gene Gabra2
T1 sequence (P26048 29-451): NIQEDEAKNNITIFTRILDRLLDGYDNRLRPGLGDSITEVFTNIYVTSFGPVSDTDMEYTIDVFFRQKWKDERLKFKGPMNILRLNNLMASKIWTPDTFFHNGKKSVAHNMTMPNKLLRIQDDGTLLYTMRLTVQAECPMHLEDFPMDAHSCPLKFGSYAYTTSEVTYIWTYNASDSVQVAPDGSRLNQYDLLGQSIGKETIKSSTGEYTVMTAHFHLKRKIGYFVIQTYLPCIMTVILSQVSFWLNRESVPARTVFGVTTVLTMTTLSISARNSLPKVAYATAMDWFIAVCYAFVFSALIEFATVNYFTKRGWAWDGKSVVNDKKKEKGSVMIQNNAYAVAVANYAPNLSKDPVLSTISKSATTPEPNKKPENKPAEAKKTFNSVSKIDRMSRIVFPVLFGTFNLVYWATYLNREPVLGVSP
T1 sequence (P28472 26-473): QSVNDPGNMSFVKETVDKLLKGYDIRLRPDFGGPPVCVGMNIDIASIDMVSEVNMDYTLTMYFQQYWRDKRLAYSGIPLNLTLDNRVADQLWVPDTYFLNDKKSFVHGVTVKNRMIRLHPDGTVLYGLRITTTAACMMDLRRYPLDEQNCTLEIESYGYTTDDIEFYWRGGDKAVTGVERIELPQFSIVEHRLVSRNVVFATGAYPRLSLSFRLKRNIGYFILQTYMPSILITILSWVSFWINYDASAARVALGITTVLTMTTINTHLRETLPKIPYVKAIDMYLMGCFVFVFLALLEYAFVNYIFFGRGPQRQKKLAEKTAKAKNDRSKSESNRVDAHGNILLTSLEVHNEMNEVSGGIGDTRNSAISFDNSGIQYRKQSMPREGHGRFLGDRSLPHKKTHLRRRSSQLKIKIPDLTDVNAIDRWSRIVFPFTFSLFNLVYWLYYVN
T1 sequence (P22723 39-474 I112M/D113T/I114V/F116L/A117H/T119S/Y121R): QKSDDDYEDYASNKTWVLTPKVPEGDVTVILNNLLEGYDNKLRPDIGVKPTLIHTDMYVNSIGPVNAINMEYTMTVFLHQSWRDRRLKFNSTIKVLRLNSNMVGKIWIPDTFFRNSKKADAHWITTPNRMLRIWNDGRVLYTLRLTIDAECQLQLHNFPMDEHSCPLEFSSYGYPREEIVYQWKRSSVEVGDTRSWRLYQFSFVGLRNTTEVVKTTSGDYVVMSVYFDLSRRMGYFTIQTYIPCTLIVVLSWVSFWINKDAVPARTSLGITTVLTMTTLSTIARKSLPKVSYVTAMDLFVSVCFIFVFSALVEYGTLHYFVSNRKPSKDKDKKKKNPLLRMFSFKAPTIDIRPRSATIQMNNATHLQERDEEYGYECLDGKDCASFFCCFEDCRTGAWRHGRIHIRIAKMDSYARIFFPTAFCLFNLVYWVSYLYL
The assay can be described thus: cell-based. To be noted: read-out: % of control GABA current at 1 μM.

The target in the next assay is T2, α2β1 (Mus musculus; Rattus norvegicus, UniProt P15431+P26048).
T2 construct: gene Gabra2; binary GABA-A receptor, mouse alpha2 + rat beta1; Xenopus oocytes
In words: two-electrode voltage clamp, Xenopus oocytes. It counts as cell-based. To be noted: read-out: Taurine / EC50. An excerpt: two-electrode voltage clamp, Xenopus oocytes on α2β1

For another assay, the target named is T3, α2β3δ (Mus musculus; Homo sapiens, UniProt P26048+P28472).
T3 construct: gene Gabra2; ternary GABA-A receptor, mouse alpha2 + human beta3 + human delta; Xenopus oocytes, cRNA ratio 10:1:10; with Gamma-aminobutyric acid receptor subunit delta
T3 sequence (P26048 29-451): T1 sequence (P26048 29-451)
T3 sequence (P28472 26-473): T1 sequence (P28472 26-473)
T3 sequence (O14764 25-452 partner): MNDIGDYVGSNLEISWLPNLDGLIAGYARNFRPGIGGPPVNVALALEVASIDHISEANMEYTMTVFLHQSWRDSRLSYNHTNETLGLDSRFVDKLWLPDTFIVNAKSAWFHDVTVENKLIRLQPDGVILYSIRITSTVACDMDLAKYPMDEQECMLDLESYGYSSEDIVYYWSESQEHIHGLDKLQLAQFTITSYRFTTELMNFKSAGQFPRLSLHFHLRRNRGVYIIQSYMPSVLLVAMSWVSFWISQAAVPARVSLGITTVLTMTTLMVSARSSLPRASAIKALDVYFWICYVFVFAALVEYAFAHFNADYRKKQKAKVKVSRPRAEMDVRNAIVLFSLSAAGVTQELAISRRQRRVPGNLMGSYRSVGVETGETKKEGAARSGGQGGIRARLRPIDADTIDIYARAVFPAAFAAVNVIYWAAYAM
The assay can be described thus: two-electrode voltage clamp, Xenopus oocytes. The class given is cell-based. To be noted: read-out: Taurine / EC50. A general note: Two-electrode voltage clamp holds a large cell at a set potential and records current.

Another assay concerns the target T4, α2β3γ2 (Mus musculus; Homo sapiens, UniProt P22723+P26048+P28472).
T4 construct: gene Gabra2; ternary GABA-A receptor, mouse alpha2 + human beta3 + mouse gamma2L; Xenopus oocytes, cRNA ratio 10:1:10; agonist site alpha/beta, zolpidem site alpha/gamma
In words: two-electrode voltage clamp, Xenopus oocytes. It counts as cell-based. To be noted: read-out: Taurine / EC50.

A further assay deals with T5, α2β1γ2 (Rattus norvegicus; Mus musculus, UniProt P15431+P26048).
T5 construct: gene Gabra2; ternary GABA-A receptor, mouse alpha2 + rat beta1 + mouse gamma2L; Xenopus oocytes, cRNA ratio 10:1:10; with Gamma-aminobutyric acid receptor subunit gamma-2
In words: two-electrode voltage clamp, Xenopus oocytes. It counts as cell-based. To be noted: read-out: Taurine / EC50.

A further assay concerns the target T6, α2β1δ (Rattus norvegicus; Mus musculus; Homo sapiens, UniProt P15431+P26048).
T6 construct: gene Gabra2; ternary GABA-A receptor, mouse alpha2 + rat beta1 + human delta; Xenopus oocytes, cRNA ratio 10:1:10; with Gamma-aminobutyric acid receptor subunit delta
In words: two-electrode voltage clamp, Xenopus oocytes. It counts as cell-based. To be noted: read-out: Taurine / EC50.

The next assay deals with T7, α2β1γ2 (δ74–79) (Mus musculus; Rattus norvegicus, UniProt P15431+P26048).
T7 construct: gene Gabra2; mouse alpha2 + rat beta1 + mouse gamma2L with IDIFFA (74-79) replaced by delta motif MTVFLH; printed primers also encode T81S and Y83R, text names 74-79 only; Xenopus oocytes; with Gamma-aminobutyric acid receptor subunit gamma-2
The assay can be described thus: two-electrode voltage clamp, Xenopus oocytes. The class given is cell-based. Particulars: read-out: Taurine / EC50. The source says: two-electrode voltage clamp, Xenopus oocytes on α2β1γ2 (δ74–79)

Another assay deals with T8, α2β3 (Mus musculus; Homo sapiens, UniProt P26048+P28472).
T8 construct: gene Gabra2; binary GABA-A receptor, mouse alpha2 + human beta3; Xenopus oocytes
T8 sequence (P26048 29-451): T1 sequence (P26048 29-451)
T8 sequence (P28472 26-473): T1 sequence (P28472 26-473)
The assay can be described thus: two-electrode voltage clamp, Xenopus oocytes. To be noted: read-out: Taurine / EC50. The class given is cell-based.

T4 sequence (P22723 39-474, one chain of several): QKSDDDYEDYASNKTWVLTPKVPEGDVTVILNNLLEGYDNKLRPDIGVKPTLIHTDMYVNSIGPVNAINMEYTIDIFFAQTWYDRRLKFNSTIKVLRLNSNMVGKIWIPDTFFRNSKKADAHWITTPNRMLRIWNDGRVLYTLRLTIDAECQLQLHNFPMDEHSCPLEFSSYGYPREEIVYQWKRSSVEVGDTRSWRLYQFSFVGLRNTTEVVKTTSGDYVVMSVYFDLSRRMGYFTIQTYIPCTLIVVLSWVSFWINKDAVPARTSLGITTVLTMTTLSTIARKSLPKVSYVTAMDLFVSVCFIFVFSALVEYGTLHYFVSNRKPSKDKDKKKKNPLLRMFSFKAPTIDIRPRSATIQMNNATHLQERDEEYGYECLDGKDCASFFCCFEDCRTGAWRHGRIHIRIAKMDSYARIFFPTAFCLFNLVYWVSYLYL
T7 sequence (P15431 26-474, one chain of several): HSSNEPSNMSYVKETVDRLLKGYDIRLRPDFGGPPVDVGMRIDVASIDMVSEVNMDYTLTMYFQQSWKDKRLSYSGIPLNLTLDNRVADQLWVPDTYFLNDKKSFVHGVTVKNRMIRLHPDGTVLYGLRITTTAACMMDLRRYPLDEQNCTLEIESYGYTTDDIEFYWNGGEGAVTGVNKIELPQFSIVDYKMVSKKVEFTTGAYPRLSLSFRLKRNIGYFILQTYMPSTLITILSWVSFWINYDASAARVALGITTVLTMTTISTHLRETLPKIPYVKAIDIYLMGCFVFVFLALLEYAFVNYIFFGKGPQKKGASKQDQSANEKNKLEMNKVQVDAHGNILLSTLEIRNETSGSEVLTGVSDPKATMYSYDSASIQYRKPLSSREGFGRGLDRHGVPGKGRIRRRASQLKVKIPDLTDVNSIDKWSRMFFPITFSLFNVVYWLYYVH
T2 sequence (P15431 26-474, one chain of several): as above
T6 sequence (P15431 26-474, one chain of several): as above
T5 sequence (P26048 29-451 F77I): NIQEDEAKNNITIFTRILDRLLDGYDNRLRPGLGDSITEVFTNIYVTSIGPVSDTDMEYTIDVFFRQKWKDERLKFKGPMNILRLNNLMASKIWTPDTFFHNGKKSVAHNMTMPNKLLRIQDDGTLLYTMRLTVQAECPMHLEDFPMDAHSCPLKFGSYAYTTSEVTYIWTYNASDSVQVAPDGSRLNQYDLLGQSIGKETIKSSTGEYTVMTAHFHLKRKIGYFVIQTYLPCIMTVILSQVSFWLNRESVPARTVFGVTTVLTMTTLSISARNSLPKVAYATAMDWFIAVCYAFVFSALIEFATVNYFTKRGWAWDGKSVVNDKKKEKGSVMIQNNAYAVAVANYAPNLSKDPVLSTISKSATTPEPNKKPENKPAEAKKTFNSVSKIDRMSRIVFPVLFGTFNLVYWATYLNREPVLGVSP
T5 sequence (P15431 26-474): as the sequence (P15431 26-474, one chain of several) above
T5 sequence (P22723 39-474 partner): as the sequence (P22723 39-474, one chain of several) above

Consider `Cc1ccc(-c2nc3ccc(C)cn3c2CC(=O)N(C)C)cc1` [zolpidem], for which, at α2β3γ2 (δ74–79), the remaining activity at 1 µM was determined as 97 ± 7%.

For `NCCS(=O)(=O)O` [taurine, 2-aminoethane sulfonic acid], the EC50 at α2β1 worked out at 81.8 ± 24.9 mM; at α2β3δ it was 35.4 ± 2 mM; on α2β3γ2, 51.2 ± 19.8 mM; at α2β1γ2, 76.1 ± 3.9 mM; on α2β1δ it was 67.8 ± 15.9 mM; on α2β1γ2 (δ74–79), 40.5 ± 6.9 mM. In addition, the EC50 at α2β3 stood at 24.5 ± 11.2 mM.

For the origin of these results see PMC3640040, “Partial Agonism of Taurine at Gamma-Containing Native and Recombinant GABAA Receptors” (PLoS ONE, 2013).
